# Legend:
# [1] = biological target: T1, human enzyme NAMPT (full length) (Homo sapiens, UniProt P43490); experiment: NMN fluorescence biochemical assay (stimulation of NMN synthesis by NAMPT); details: for EC50: NMN synthesis by purified human NAMPT (100 nM), concentration giving half-maximal activation, read-out: Enzymatic EC50; for Enzymatic Emax: fold change of maximal activation compared to DMSO
# T1 construct: human enzyme NAMPT (full length)
# Summary of the method: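 Full-length human NAMPT (100 nM) was preincubated 15 min at 37 °C with compound in 50 mM Tris-HCl pH 7.5, 10 mM MgCl2, 2 mM DTT, then reacted 1 h at 37 °C with 50 μM NAM, 100 μM PRPP, 4 mM ATP (stated solution concentrations). NMN was derivatised with acetophenone/KOH then formic acid and read at Ex/Em 382/445 nm; EC50 and Emax (fold over DMSO) reported.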
# [2] = tested on: endogenous NAMPT in U2OS cells; experiment: Cellular NAD+ modulation assay (NAD/NADH-Glo, U2OS cells); type: cell-based; details: Homo sapiens, 24 hours incubation with compound; for maximal fold induction: read-out: Cellular Emax
# Procedure: Certain compounds described herein were also assayed for their ability to stimulate the endogenous NAMPT in a native cellular environment in a cellular NAD^+ modulation assay. U2OS cells were grown in McCoy's 5A medium with 10% fetal bovine serum, in a humidified incubator with an atmosphere of 95% air and 5% CO2 at 37° C. The assays were initiated by plating 30 μL of U2OS cells in a culture medium with 10% fetal bovine serum, at a density of 3000 cells per well in a Corning® 384-well White/Clear Bottom Polystyrene Microplate. The plates were incubated in 37T incubators for a period of 16 hours. Test compounds with a series of concentrations in DMSO were added to the plates in a volume of 150 nL using Echo Liquid handlers. The plates are then incubated for 24 hours. The medium was removed from the wells, then 10 μL PBS was added to each well. To each well of cells in 10 μL of PBS, 10 μL of base solution with 1% DTAB was added. The plate was briefly mixed on a plate shaker to ensure homogeneity and cell lysis (5 mins). 10p L of 0.4N HCl was added per well. The plate was coved, and all samples were incubated for 15 minutes at 60° C. Then the plate was equilibrated for 10 minutes at room temperature. 10 μL of 0.5M Trizma® base was added to each well of acid-treated cells to neutralize the acid. Finally, 30 μL of NAD/NADH-Glo™ Detection Reagent was added. The plate was gently shaken to mix the samples. The plate was incubated for 40 minutes at room temperature. Luminescence was recorded using a luminometer. The potency measurements for the test compounds were quantified and represented as EC50 (concentration of a compound that gives half-maximal activation) and Emax (fold change of a compound's maximal activation compared to DMSO).
# T1 sequence (P43490 whole entry): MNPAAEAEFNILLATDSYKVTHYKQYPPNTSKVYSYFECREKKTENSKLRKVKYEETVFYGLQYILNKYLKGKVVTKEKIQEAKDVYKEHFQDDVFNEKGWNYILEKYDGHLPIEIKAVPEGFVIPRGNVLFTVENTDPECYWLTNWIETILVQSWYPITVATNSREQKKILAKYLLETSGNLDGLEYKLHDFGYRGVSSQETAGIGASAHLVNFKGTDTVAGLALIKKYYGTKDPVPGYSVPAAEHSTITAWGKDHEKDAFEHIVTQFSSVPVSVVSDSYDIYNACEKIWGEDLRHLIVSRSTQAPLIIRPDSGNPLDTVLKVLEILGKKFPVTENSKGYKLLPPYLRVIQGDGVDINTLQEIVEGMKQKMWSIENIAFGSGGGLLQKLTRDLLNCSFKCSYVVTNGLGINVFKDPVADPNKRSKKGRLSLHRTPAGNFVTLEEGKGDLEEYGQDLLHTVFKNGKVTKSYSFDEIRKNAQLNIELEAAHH
EC50 [1],Enzymatic Emax [1],EC50 [2],SMILES,maximal fold induction [2]
≥ 5 µM,B (3≥B>2),5 to 50 µM,"Cn1c2ccccc2c(=O)n1Cc1ccc2[nH]c(=O)oc2c1 [Compound 46, 6-((1-methyl-3-oxo-1,3-dihydro-2H-indazol-2-yl)methyl)benzo[d]oxazol-2(3H)-one]",> 1.5
≥ 5 µM,B (3≥B>2),5 to 50 µM,"O=C1c2ccc(N3CCOCC3)cc2CN1Cc1ccc2[nH]c(=O)oc2c1 [Compound 47, 6-((5-morpholino-1-oxoisoindolin-2-yl)methyl)benzo[d]oxazol-2(3H)-one]",> 1.5
≥ 5 µM,B (3≥B>2),0.5 to 5 µM,"Cc1ccc2c(c1)CN(Cc1ccc3[nH]c(=O)oc3c1)C2=O [Compound 48, 6-((5-methyl-1-oxoisoindolin-2-yl)methyl)benzo[d]oxazol-2(3H)-one]",> 1.5
≥ 5 µM,B (3≥B>2),5 to 50 µM,"COc1ccc2c(c1)CN(Cc1ccc3[nH]c(=O)oc3c1)C2=O [Compound 49, 6-((5-methoxy-1-oxoisoindolin-2-yl)methyl)benzo[d]oxazol-2(3H)-one]",> 1.5
≥ 5 µM,B (3≥B>2),0.5 to 5 µM,"CC1(C)c2ccccc2C(=O)N1Cc1ccc2[nH]c(=O)oc2c1 [Compound 52, 6-((1,1-dimethyl-3-oxoisoindolin-2-yl)methyl) benzo[d]oxazol-2(3H)-one]",> 1.5
≥ 5 µM,B (3≥B>2),5 to 50 µM,"CCC1c2ccccc2C(=O)N1Cc1ccc2[nH]c(=O)oc2c1 (centres unmarked) [Compound 53, 6-((1-ethyl-3-oxoisoindolin-2-yl)methyl) benzo[d]oxazol-2(3H)-one]",1.2 to 1.5
≥ 5 µM,A (A>3),0.5 to 5 µM,"CC1c2ccccc2C(=O)N1Cc1ccc2[nH]c(=O)oc2c1 (centres unmarked) [Compound 54, 6-((1-methyl-3-oxoisoindolin-2-yl)methyl)benzo[d]oxazol-2(3H)-one]",> 1.5
≥ 5 µM,B (3≥B>2),5 to 50 µM,"C[C@@H]1c2ccccc2C(=O)N1Cc1ccc2[nH]c(=O)oc2c1 [Compound 55, (R)-6-((1-methyl-3-oxoisoindolin-2-yl)methyl)benzo[d]oxazol-2(3H)-one]",1.2 to 1.5
≥ 5 µM,A (A>3),0.5 to 5 µM,"C[C@H]1c2ccccc2C(=O)N1Cc1ccc2[nH]c(=O)oc2c1 [Compound 56, (S)-6-((1-methyl-3-oxoisoindolin-2-yl)methyl)benzo[d]oxazol-2(3H)-one]",> 1.5
≥ 5 µM,B (3≥B>2),5 to 50 µM,"O=C1c2ccccc2C(c2ccccc2)N1Cc1ccc2[nH]c(=O)oc2c1 (centres unmarked) [Compound 67, 6-((1-oxo-3-phenylisoindolin-2-yl)methyl)benzo[d]oxazol-2(3H)-one]",1.2 to 1.5
≥ 5 µM,A (A>3),0.5 to 5 µM,"O=C1c2ccccc2C(C2CC2)N1Cc1ccc2[nH]c(=O)oc2c1 (centres unmarked) [Compound 72, 6-((1-cyclopropyl-3-oxoisoindolin-2-yl)methyl)benzo[d]oxazol-2(3H)-one]",> 1.5
≥ 5 µM,A (A>3),< 0.5 µM,"CC1c2cc(NC3CC4(CNC4)C3)ccc2C(=O)N1Cc1ccc2[nH]c(=O)oc2c1 (centres unmarked) [Compound 79, 6-((5-((2-azaspiro[3.3]heptan-6-yl)amino)-3-methyl-1-oxoisoindolin-2-yl)methyl)benzo[d]oxazol-2(3H)-one]",≤ 1.2
≥ 5 µM,A (A>3),0.5 to 5 µM,"CC1c2cc(NC3CCCC3)ccc2C(=O)N1Cc1ccc2[nH]c(=O)oc2c1 (centres unmarked) [Compound 81, 6-((5-(cyclopentylamino)-3-methyl-1-oxoisoindolin-2-yl)methyl)benzo[d]oxazol-2(3H)-one]",1.2 to 1.5
≥ 5 µM,B (3≥B>2),0.5 to 5 µM,"CC(=O)Nc1ccc(CN2C(=O)c3ccccc3C2C)cc1 (centres unmarked) [Compound 82, N-(4-((1-methyl-3-oxoisoindolin-2-yl)methyl)phenyl)acetamide]",1.2 to 1.5
≥ 5 µM,B (3≥B>2),5 to 50 µM,"CC1c2ccccc2C(=O)N1Cc1cc(F)c2[nH]c(=O)oc2c1 (centres unmarked) [Compound 89, 4-fluoro-6-((1-methyl-3-oxoisoindolin-2-yl)methyl)benzo[d]oxazol-2(3H)-one]",1.2 to 1.5
0.5 to 5 µM,B (3≥B>2),5 to 50 µM,"CC1c2cc(NC3CCOCC3)ccc2C(=O)N1Cc1ccc2[nH]c(=O)oc2c1 (centres unmarked) [Compound 95, 6-((3-methyl-1-oxo-5-((tetrahydro-2H-pyran-4-yl)amino)isoindolin-2-yl)methyl)benzo[d]oxazol-2(3H)-one]",> 1.5
≥ 5 µM,A (A>3),0.5 to 5 µM,"CC1c2cc(CN3CCCC3)ccc2C(=O)N1Cc1ccc2[nH]c(=O)oc2c1 (centres unmarked) [Compound 96, 6-((3-methyl-1-oxo-5-(pyrrolidin-1-ylmethyl)isoindolin-2-yl)methyl)benzo[d]oxazol-2(3H)-one]",> 1.5
0.5 to 5 µM,A (A>3),0.5 to 5 µM,"O=C1c2ccc(N3CCOCC3)cc2C(Cc2ccccc2)N1Cc1ccc2[nH]c(=O)oc2c1 (centres unmarked) [Compound 97, 6-((3-benzyl-5-morpholino-1-oxoisoindolin-2-yl)methyl)benzo[d]oxazol-2(3H)-one]",> 1.5
≥ 5 µM,B (3≥B>2),5 to 50 µM,"CC(=O)Nc1ccc(CN2Cc3ccccc3C2=O)cc1 [Compound 104, N-(4-((1-oxoisoindolin-2-yl)methyl)phenyl)acetamide]",> 1.5
≥ 5 µM,B (3≥B>2),0.5 to 5 µM,"CNC(=O)Nc1ccc(CN2Cc3ccccc3C2=O)cc1 [Compound 105, 1-methyl-3-(4-((1-oxoisoindolin-2-yl)methyl)phenyl)urea]",> 1.5
0.5 to 5 µM,A (A>3),0.5 to 5 µM,"O=C1c2ccccc2C(Cc2ccccc2)N1Cc1ccc2[nH]c(=O)oc2c1 (centres unmarked) [Compound 106, 6-((1-benzyl-3-oxoisoindolin-2-yl)methyl)benzo[d]oxazol-2(3H)-one]",1.2 to 1.5
0.5 to 5 µM,B (3≥B>2),0.5 to 5 µM,"CC1c2cc(Cc3ccccc3)ccc2C(=O)N1Cc1ccc2[nH]c(=O)oc2c1 (centres unmarked) [Compound 113, 6-((5-benzyl-3-methyl-1-oxoisoindolin-2-yl)methyl)benzo[d]oxazol-2(3H)-one]",1.2 to 1.5
0.5 to 5 µM,B (3≥B>2),5 to 50 µM,"O=C1c2ccccc2C(CCc2ccccc2)N1Cc1ccc2[nH]c(=O)oc2c1 (centres unmarked) [Compound 114, 6-((1-oxo-3-phenethylisoindolin-2-yl)methyl)benzo[d]oxazol-2(3H)-one]",> 1.5
≥ 5 µM,A (A>3),5 to 50 µM,"CC1c2cc(CN3CC4(CNC4)C3)ccc2C(=O)N1Cc1ccc2[nH]c(=O)oc2c1 (centres unmarked) [Compound 115, 6-((5-((2,6-diazaspiro[3.3]heptan-2-yl)methyl)-3-methyl-1-oxoisoindolin-2-yl)methyl) benzo[d]oxazol-2(3H)-one]",1.2 to 1.5
< 0.5 µM,B (3≥B>2),0.5 to 5 µM,"O=C1c2ccc(C3CC3)cc2C(Cc2ccccc2)N1Cc1ccc2[nH]c(=O)oc2c1 (centres unmarked) [Compound 116, 6-((3-benzyl-5-cyclopropyl-1-oxoisoindolin-2-yl)methyl)benzo[d]oxazol-2(3H)-one]",> 1.5
0.5 to 5 µM,A (A>3),0.5 to 5 µM,"O=C1c2ccc(CN3CCOCC3)cc2C(Cc2ccccc2)N1Cc1ccc2[nH]c(=O)oc2c1 (centres unmarked) [Compound 123, 6-((3-benzyl-5-(morpholinomethyl)-1-oxoisoindolin-2-yl)methyl)benzo[d]oxazol-2(3H)-one]",> 1.5

# — patent US20260078130A1, “NAMPT MODULATORS, PREPARATIONS, AND USES THEREOF” (SIRONAX LTD., priority 2022, published 2026)
